{"source": "paper PMC11042424", "about": "“Development of a First-in-Class RIPK1 Degrader to Enhance Antitumor Immunity” (Research Square, 2024)", "key": {"[1]": {"assay": "Stability in human primary hepatocytes", "type": "in vitro ADME"}, "B16F10 cells": {"test_system": "B16F10 cells", "assay": "TNFα-mediated apoptosis in B16F10 cells", "type": "cell-based, mouse", "details": "1 μM, TNFα 100 ng/mL, 72 hours", "from_the_text": "Figure 3 LD4172 sensitizes B16F10 cells to TNFα-mediated apoptosis. A, Representative flow cytometry dot plots of apoptosis. In all four plots, viable cells are seen in the left lower quadrant (FITC-/PI-), early apoptotic cells in the right lower quadrant (FITC+/PI-), and late apoptotic cells in the right upper quadrant (FITC+/PI+). B, Representative images of PI (red) and caspase 3/7 (Cas3/7+, green) staining of B16F10 cells. Cell death assessed by PI uptake using Cytation 5 imager. C, Western blots for the expression of cleaved caspase3, cleaved caspase7, and cleaved PARP in B16F10 cells. D, Quantification of extracellular ATP level. Western blots for the expression of HMGB1 and calreticulin in B16F10 cells. E, Immunofluorescence staining of HMGB1 in B16F10 cells. B16F10 cells were treated in the presence or absence of TNFα (100 ng/mL), Z-VAD-FMK (25 μM), LD4172 (1 μM), and/or T2I (1 μM) as indicated for 72 hours. Data are representative of three independent experiments. Error bars represent SD.\nApoptosis quantification was conducted utilizing a FITC-conjugated Annexin V/PI assay kit (556547, BD Biosciences) and analyzed through flow cytometry. Briefly, 2×10^5 of B16F10 cells were seeded onto six-well plates and treated as specified for 72 hours at 37°C. Treated and untreated cells were harvested, washed with PBS, and resuspended in 100 μl of binding buffer. […]"}, "[2]": {"target": "T1, nLuc-RIPK1 fusion protein (Homo sapiens, UniProt Q13546)", "T1 construct": "expressed in transfected cells", "T1 sequence (Q13546 1-671)": "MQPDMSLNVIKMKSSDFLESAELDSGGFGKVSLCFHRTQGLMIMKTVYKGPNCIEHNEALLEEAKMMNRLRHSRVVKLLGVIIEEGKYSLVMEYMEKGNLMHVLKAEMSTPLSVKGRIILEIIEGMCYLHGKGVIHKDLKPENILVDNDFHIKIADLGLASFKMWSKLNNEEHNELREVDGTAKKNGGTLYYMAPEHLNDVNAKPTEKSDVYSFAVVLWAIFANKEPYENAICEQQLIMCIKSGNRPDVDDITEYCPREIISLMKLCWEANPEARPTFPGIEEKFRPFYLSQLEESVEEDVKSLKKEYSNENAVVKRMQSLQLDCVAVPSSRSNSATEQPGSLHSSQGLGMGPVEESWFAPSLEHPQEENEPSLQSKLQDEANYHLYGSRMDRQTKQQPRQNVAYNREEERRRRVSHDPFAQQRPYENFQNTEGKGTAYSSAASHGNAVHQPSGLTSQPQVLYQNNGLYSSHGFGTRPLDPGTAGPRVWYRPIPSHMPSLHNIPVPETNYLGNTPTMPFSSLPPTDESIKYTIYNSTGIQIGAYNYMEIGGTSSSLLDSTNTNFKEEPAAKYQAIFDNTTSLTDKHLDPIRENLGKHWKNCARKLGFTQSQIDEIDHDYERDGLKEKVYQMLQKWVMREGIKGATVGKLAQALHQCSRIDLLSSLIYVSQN", "assay": "NanoBRET based in-cell RIPK1 target engagement", "description": "Figure 2 LD4172, a RIPK1 PROTAC, induces potent and highly specific degradation of RIPK1 in a panel of cell lines. A, Chemical structures of RIPK1 PROTAC, LD4172, and its negative control, LD4172-NC. […] B, Quantification of RIPK1 levels in both Jurkat and B16F10 cells treated with LD4172 at indicated concentrations for 24 h, followed by Western blotting. C, DC50 and Dmax of LD4172 in various human and mouse cell lines. DC50, the drug concentration causing 50% protein degradation; Dmax, the maximum level of protein degradation. D, RIPK1 degradation kinetics induced by LD4172 treatment (1 μM) and resynthesis kinetics upon washout of LD4172 in both Jurkat and B16F10 cells. E, Quantification of D. The degradation half-life of RIPK1 induced by LD4172 (1 μM) is <2 h in Jurkat and B16F10 cells. […] F, NanoBRET based in-cell RIPK1 target engagement. HEK293 cells were transfected with a plasmid expressing nLuc-RIPK1 fusion protein for 24 h, followed by incubating with a RIPK1 NanoBRET tracer (500 nM) and different concentrations of LD4172 and LD4172-NC (n=3). G, Time-resolved fluorescence resonance energy transfer (TR-FRET) based biochemical binding assay for RIPK1. GST-tagged human RIPK1 (1 nM), Tb-labeled anti-GST antibody (0.3 nM), a RIPK1 TR-FRET tracer (350 nM) and different concentrations of LD4172 (n=3) were incubated for 2 hours, followed by TR-FRET measurements with an excitation wavelength at 340 nm and emission wavelengths at 495 and 520 nm. H, NanoBRET based in-cell assay for ternary complex formation. HEK293T cells were co-transfected with nLuc-RIPK1 and VHL-HaloTag plasmids for 24 h, followed by treatment with indicated concentrations of LD4172 or LD4172-NC (n=3). I, LD4172 induced RIPK1 degradation depends on ternary complex formation, neddylation and proteasome activity. Representative immunoblots of RIPK1 in both Jurkat and B16F10 cells. Cells were treated with RIPK1 inhibitor (T2I), VHL ligand, a neddylation inhibitor (MLN4924) or a proteasome inhibitor (Carfilzomib) at indicated concentrations for 4 hours, followed by LD4172 treatment for 4 hours. J, Proteome profiling of LD4172 induced protein degradation. MDA-MB- 231 cells were treated with LD4172 (200 nM) or LD4172-NC (200 nM) for 6 h (n=3). In total, ~10,000 proteins were quantified in the proteomics experiment. […] Blue dots represent kinases that are inhibited by the warhead of LD4172 but not degraded by LD4172.\nTo elucidate the formation of a binary complex during RIPK1 degradation, we developed a competitive NanoBRET (Nano-Bioluminescence Resonance Energy transfer)-based target engagement (TE) assay to quantify the binding between RIPK1 and LD4172 in cells[12],[13]. First, we developed a RIPK1 tracer by conjugating the LD4172 warhead T2I with a BODIPY-590 fluorescent dye, dubbed T2–590 (refer to Supporting Information for details). The dissociation equilibrium constant (Kd) between the tracer and RIPK1 was determined to be 0.5 μM by titrating the tracer in HEK293T cells expressing a nLuc-RIPK1 fusion protein. […] This is usually expected, considering that the large molecular weight of LD4172 may lead to poor cellular permeability."}}, "note": "Read-outs that look alike come from different tables or passages of the source."}
{"smiles": "Cc1ncsc1-c1ccc([C@H](C)NC(=O)[C@@H]2C[C@@H](O)CN2C(=O)[C@@H](NC(=O)CCCCCCCCCCC(=O)NCCCn2cc(-c3ccc4c(c3)CCN4C(=O)Cc3cccc(OC(F)(F)F)c3)c3c(N)ncnc32)C(C)(C)C)cc1", "note": "[LD4172]", "values": [{"measurement": "half-life", "setting": "[1]", "value": 56.3, "unit": "min"}, {"measurement": "cell death / apoptosis in combination with TNFα", "setting": "B16F10 cells", "value": "significant cell death"}, {"measurement": "Ki", "setting": "[2]; Cheng-Prusoff equation, read-out: apparent Ki between compound and RIPK1 in the cells", "value": 1.9, "unit": "µM"}, {"measurement": "IC50", "setting": "[2]; HEK293 cells, tracer 500 nM, n=3, read-out: IC50 (nM), Fig. 2F", "value": 3750, "unit": "nM"}, {"measurement": "IC50", "setting": "[2]; tracer concentration at its Kd value, read-out: IC50, competition with tracer", "value": 3700, "unit": "nM"}]}
